Measurements as given in article PMC4601023, “Novel anticancer agent, SQAP, binds to focal adhesion kinase and modulates its activity” (Scientific Reports, 2015).

Tests used:
VEGF = VEGF (Homo sapiens, UniProt P15692); test: SPR analysis of SQAP-VEGF interaction; type: binding; conditions: data not shown
From the text: The phosphorylation of FAK in response to VEGF plays an important role in the regulation of endothelial cell migration during angiogenesis. Therefore we hypothesized that SQAP activity could potentially be mediated through binding to FAK. […] In this region, FAK interacts with paxillin through FAT domain and becomes autophosphorylated on Y397[29][30]. Y397 is an autophosphorylation site which is crucial for FAK activity and has been related to apoptosis and tumor growth. FAK is also phosphorylated at Y925, leading to the regulation of adhesion turnover and cell motility. Thus we chose to study the FAK phosphorylation on Y397 and Y925 residues. Initially, we examined whether SQAP affected phosphorylation of FAK in HUVEC cells stimulated with VEGF in the presence or absence of SQAP. […] Since SQMG was previously reported to bind to VEGF[34], we could not rule out the possibility of a binding between SQAP and VEGF so we analyzed this interaction by SPR. […] Therefore, we investigated whether SQAP could inhibit FAK phosphorylation independently of VEGF. We analyzed FAK phosphorylation in the absence of VEGF and observed that SQAP inhibited the phosphorylation of FAK signal within 1 h in a VEGF independent manner (Fig. 5B). Additionally, we treated HUVEC with VEGF in the presence of SQMG and SQP.

[1] = system: FAK phosphorylation (Y397, Y925) in HUVEC cells; test: FAK phosphorylation level in HUVEC, Western blotting; type: cell-based, human
Procedure: HUVEC cells were incubated for 20 h in serum-free medium in 60 mm dishes. SQAP, SQMG or SQP was added and incubated for 30 min followed by addition of 50 ng/mL VEGF (RD systems, Minneapolis, MN. USA) and incubation for another 30 min. FAK phosphorylation level was analyzed by Western blotting as described in the next section.
Cells were harvested and solubilized in RIPA buffer (20 mM Tris-HCl, pH 7.5, 1% Sodium deoxycholate, 150 mM NaCl, 5 mM EDTA, 1% Triton X-100, 0.1% SDS, 0.1%, 1 mM PMSF, 1 mM vanadate and 1 μg/mL leupeptin). Protein quantification was determined using the DC protein assay kit (Bio-Rad, Hercules, CA, USA). A total of 15 μg of each protein sample were separated by SDS–PAGE gels and blotted onto polyvinylidene difluoride membranes (Merck, Kenilworth, NJ, US). After blocking for 1 h with Blocking-One (Nacalai Tesque, Kyoto, Japan), proteins were detected by incubating the membranes with the primary antibody at 4 °C overnight (anti-Y397 2:2000, anti-Y925 5:2000 and anti-FAK 0.5:2000) followed by incubation with horseradish peroxidase-conjugated secondary antibodies at room temperature for 1 h (anti-mouse 0.5:2000 and anti-rabbit 0.4:2000).

[2] = system: Akt phosphorylation at S473 in A549; test: Akt phosphorylation in A549, Western blotting; type: cell-based, human; conditions: A549, fibronectin, 1 h treatment
Procedure: Fibronectin is a glycoprotein located in the extracellular matrix that binds to integrins. […] A549 lung cancer cells have been used before for studying cell migration because of their metastatic model potential. A549 cells are also one of the tumor cell lines sensitive to SQMG[9]. Therefore, we studied the phosphorylation of FAK in A549 cells (Fig. 5C,D). SQAP could inhibit the phosphorylation of FAK at Y397 and Y925 after 1 h treatment in a dose dependent manner. […] We also examined paxillin and Akt phosphorylation in A549 as downstream targets of FAK. […] We hypothesize that SQAP diminish on Akt phosphorylation being more readily in A549 cancer cells than in HUVEC endothelial cells might be due to a higher Akt basal activity on cancer cells.
Cells were harvested and solubilized in RIPA buffer (20 mM Tris-HCl, pH 7.5, 1% Sodium deoxycholate, 150 mM NaCl, 5 mM EDTA, 1% Triton X-100, 0.1% SDS, 0.1%, 1 mM PMSF, 1 mM vanadate and 1 μg/mL leupeptin). Protein quantification was determined using the DC protein assay kit (Bio-Rad, Hercules, CA, USA). A total of 15 μg of each protein sample were separated by SDS–PAGE gels and blotted onto polyvinylidene difluoride membranes (Merck, Kenilworth, NJ, US). […]

[3] = system: human lung small cell carcinoma, Lu-65; test: Tumor xenograft, SQAP plus X-irradiation; type: in vivo, KSN nude mice; conditions: 2 mg/kg i.v. five injections plus X-irradiation 8 Gy/fraction x 2; Supplementary Fig. S1, also ref 12
Procedure: Cell lines and animal studies: A human lung small cell carcinoma, Lu-65, was obtained from the Cell resource Center for Biomedical Research (Sendai, Japan) and maintained in RPMI-1640 medium supplemented with 10% fetal bovine serum, 100 units/ml penicillin, 100 μg/ml streptomycin, and 1 mM sodium pyruvate at 37 °C in 5% CO2 humidified atmosphere. Viable tumor cell (1 × 106) were implanted subcutanceously into the right hind legs of male KSN nude mice (6–8 weeks old). After the tumor volume reached 50 to 100 mm3, the tumor were treated and the tumor growth was monitored by palpation. The size of the palpable tumors was measured using calipers every two days. The tumor volume (V, […]) was estimated based on the formula as follows; (minor axis)^2 × (major axis) × 0.5.
Treatments: Synthesized SQAP was prepared one day before experimentation, and dissolved in saline at the appropriate concentrations. To analyze the tumor radioresponse, 2 mg/kg SQAP (dissolved in 100 μl of saline) was administered intravenously to the ‘SQAP’ group and ‘Combination’ group (adiministered five times daily from days zero to four). The same amount of saline was injected in the ‘control’ group and ‘X-irradiation’ group. […]

Sequence of VEGF (P15692 whole entry, species assumed, the tested form may be a part): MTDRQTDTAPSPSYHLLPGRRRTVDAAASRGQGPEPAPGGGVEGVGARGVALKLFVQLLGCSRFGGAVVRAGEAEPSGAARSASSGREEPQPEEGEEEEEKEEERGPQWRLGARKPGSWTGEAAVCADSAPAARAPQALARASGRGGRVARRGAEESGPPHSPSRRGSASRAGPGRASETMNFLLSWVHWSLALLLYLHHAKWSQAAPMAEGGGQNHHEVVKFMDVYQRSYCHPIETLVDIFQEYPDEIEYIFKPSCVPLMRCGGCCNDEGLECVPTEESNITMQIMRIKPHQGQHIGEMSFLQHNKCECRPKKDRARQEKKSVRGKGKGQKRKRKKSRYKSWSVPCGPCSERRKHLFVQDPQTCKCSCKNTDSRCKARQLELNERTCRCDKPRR

## CCCCCCCCCCCCCCCCCC(=O)OCCCO[C@H]1O[C@H](CS(=O)(=O)O)[C@@H](O)[C@H](O)[C@H]1O [SQAP, sulfoquynovosylacylpropanediol]
VEGF
  binding to VEGF (SPR): did bind
[1]; VEGF 50 ng/mL, 1 h
  phosphorylation level of FAK at Y397 and at Y925 after VEGF stimulation: appreciably reduced
[1]; no VEGF, within 1 h
  phosphorylation of FAK in the absence of VEGF: inhibited
[2]
  Akt phosphorylation at S473: clearly downregulated
[3]
  tumor arrest in combination with irradiation: synergistically enhanced tumor arrest
